Data as given in PubChem BioAssay (NCI).
“And” between values parts separate entries of the source, which are not always exact repeats. Equal entries are not always repeated.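 Assay format: 96-well plates, 48-hour exposure. GI50 is the concentration that inhibits growth by half. TGI marks complete inhibition of growth.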

Experiments:
Assay in all cases: NCI anticancer screen, dose series, 48 h
[1] = system: CCRF-CEM leukemia
[2] = system: COLO 205 colon
[3] = system: HT29 colon
[4] = system: KM12 colon
[5] = system: LOX IMVI melanoma
[6] = system: NCI-H23 lung
[7] = system: OVCAR-3 ovarian
[8] = system: OVCAR-4 ovarian
[9] = system: RPMI-8226 leukemia
[10] = system: SNB-19 CNS

Row | SMILES | GI50 [1] [µM] | TGI [1] | GI50 [2] | TGI [2] | GI50 [3] [µM] | TGI [3] [µM] | GI50 [4] [µM] | TGI [4] [µM] | GI50 [5] [µM] | TGI [5] [µM] | GI50 [6] | TGI [6] | GI50 [7] [µM] | TGI [7] [µM] | GI50 [8] [µM] | TGI [8] [µM] | GI50 [9] [µM] | TGI [9] [µM] | GI50 [10] | TGI [10] [µM]
1 | CC[C@]1(O)C[C@H]2CN(CCc3c([nH]c4ccccc34)C(C(=O)OC)(c3cc4c(cc3OC)N(C)[C@H]3[C@@](O)(C(=O)OC)[C@H](OC(C)=O)[C@]5(CC)[C@@H]6C[C@@H]6CN6CC[C@]43[C@@H]65)C2)C1 (stereo partly drawn) | 0.00456 | > 12.9 µM | 0.00246 µM | 0.00937 µM | 0.00258 | 0.0867 | 0.00296 | 1.26 | 0.00273 | > 10.3 | 0.003 µM | 0.498 µM | 0.00184 | 0.00945 | 0.0266 | > 7.51 | 0.00469 | 2.07 | 0.00667 µM | > 14.3
2 | CN(Cc1cnc2nc(N)nc(N)c2n1)c1ccc(C(=O)N[C@@H](CCS(=O)(=O)O)C(=O)O)cc1 |  | > 100 µM |  | > 100 µM |  | > 100 |  | > 100 |  | > 100 |  | > 100 µM |  | > 100 |  | > 100 |  | > 100 |  | > 100
3 | COc1cc2c(cc1OCCCN1CCN(CCCOc3cc4c(cc3OC)C(=O)N3CC(F)(F)C[C@H]3C=N4)CC1)N=C[C@@H]1CC(F)(F)CN1C2=O | 0.979 | 8.51 µM | 3.09 µM | 10.2 µM | 3.61 | > 100 | 4.1 | 17.5 | 1.89 | 4.83 | 4.55 µM | 16.8 µM | 3.55 | 10.6 | 12.7 | 33.7 | 2.2 | 7.73 | 4.08 µM | 17.5
4 | CSC[C@H](NC(=O)COc1cccc2cnccc12)C(=O)NC(Cc1ccccc1)C(O)C(=O)N1CSC[C@H]1C(=O)NC(C)(C)C (stereo partly drawn) |  | > 100 µM |  | > 100 µM |  | > 100 |  | > 100 |  | > 100 |  | > 100 µM |  | > 100 |  | > 100 |  | > 100 |  | > 100
5 | NNc1ncnc2nc[nH]c12 | 2.97 | > 100 µM | 2.56 µM | 18.7 µM | 4.36 | > 100 | 3.56 | 44.5 | 2.89 | > 100 | 10.1 µM | > 100 µM | 3.56 | 26.9 | 3.79 | > 100 | 2.09 | 17.1 | 28.7 µM | > 100
6 | CC(C)=CCC1=C(O)c2ccccc2C(=O)C1=O |  | > 100 µM and 18.5 µM | 18.4 µM and 52.3 µM and 28.8 µM | 37.5 µM and > 100 µM |  | > 100 |  | > 100 |  | > 100 | > 100 µM and 23.5 µM and 33.6 µM | > 100 µM and 69.7 µM |  | > 100 | 11.7 | > 100 |  | > 100 | > 100 µM and 16.4 µM and 29.4 µM | > 100
7 | O=c1[nH]c(-c2cccc(F)c2)cc2cc(F)ccc12 | 0.369 | > 100 µM | 0.338 µM | > 100 µM | 0.261 | > 100 | 0.307 | > 100 | 0.613 | > 100 | 1.61 µM | > 100 µM | 0.314 |  | > 90.9 | > 100 | 0.355 | > 100 | 0.664 µM | > 100
8 | Oc1oc(C(=C2N=c3ccccc3=N2)c2ccc(Cl)cc2)c(O)c1-c1ccc(Cl)cc1 |  | > 100 µM |  | 3.01 µM |  | 10.7 |  | 15.9 |  | 10.1 |  | 4.34 µM |  | > 100 |  | > 100 |  | 8.12 |  | > 100
9 | Nc1c(C(=O)Nc2ccccn2)sc2nc3c(cc12)C(=O)CCC3 | 0.79 | > 100 µM | 0.908 µM | 26 µM | 0.47 | > 100 | 0.762 | > 100 | 4.18 | > 100 | 3.29 µM | > 100 µM | 0.792 | 14.7 | 6.26 | > 100 | 3.24 | > 100 | 1.3 µM | > 100
10 | O=C1C/C(Br)=C\c2ccccc2-c2ccccc21 |  | 10.4 µM |  | 12.4 µM |  | 4.72 |  | 11.5 |  | 2.43 |  | 9.56 µM |  | 7.52 |  | 7.88 |  | 5.28 |  | 19.5
11 | COC(=N)c1csc(C2OC(CO)C(O)C2O)n1 (stereo not drawn) |  | > 100 µM |  | > 100 µM |  | > 100 |  | > 100 |  | > 100 |  | > 100 µM |  | > 100 |  | > 100 |  | > 100 |  | > 100
12 | COc1ccc(CNc2c3ccccc3nc3ccccc23)cc1F | 3.81 | 35.6 µM | 2.01 µM | 5.64 µM | 2.58 | 10.3 | 3.93 | 15.1 | 1.76 | 3.63 | 2.74 µM | 12.9 µM | 4.08 | 13.3 | 3.28 | 12.5 | 2.64 | 7.25 | 3.41 µM | 14.7
13 | CCCCCCn1c(-c2ccc(C(=O)O/N=C(\N)c3ccc4c(c3)OCO4)cc2)nc(-c2ccccc2)c1-c1ccccc1 | 1.29 | 4.25 µM | 2.15 µM | 5.37 µM | 3.64 | 39.1 | 3.9 | > 100 | 0.173 | 0.329 | 1.48 µM | 3.05 µM | 2.48 | 7.87 | 2.21 | 7 | 1.94 | 5.25 | 3.24 µM | 12.2
14 | CCOC(=O)Nc1c(C)nc2ccccn12 | > 100 | > 100 µM | > 100 µM | > 100 µM | > 100 | > 100 | > 100 | > 100 | > 100 | > 100 | > 100 µM | > 100 µM | > 100 | > 100 | > 100 | > 100 | > 100 | > 100 | > 100 µM | > 100
15 | COc1cc(OC)c(OC)cc1/C=N/NC(=O)N/N=C/c1cc(OC)c(OC)cc1OC |  | > 100 µM |  | > 100 µM |  | > 100 |  | > 100 |  | > 100 |  | > 100 µM |  | > 100 |  | > 100 |  | > 100 |  | > 100
